How the values were obtained:
Experiment in all cases: drug sensitivity score (DSS) (DSS (dimensionless)); higher = more sensitive (stronger drug response)
[1] = test system: OVSAHO
Outline: (§1)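 Ovarian cancer cell lines with shRNA induced by 100 ng/ml doxycycline for at least three days, along with patient-derived cultures, were seeded at 1 000 – 1 500 cells per well onto drugs pre-plated in 384-well plates at five concentrations over a 10,000-fold range and incubated for three days at 37 °C and 5.0 % CO2. CellTiter-Glo luminescence measured on a PHERAstar FS served as the viability readout, and each drug's dose-response curve was summarised as a drug sensitivity score following an earlier published method.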

[2] = test system: FIMM-PDC1 (patient-derived ovarian cancer cells); conditions: genetic perturbation: none (patient-derived cell culture)
Outline: as §1

[3] = test system: FIMM-PDC7 (patient-derived ovarian cancer cells); conditions: genetic perturbation: none (patient-derived cell culture)
Outline: as §1

[4] = test system: FIMM-PDC3 (patient-derived ovarian cancer cells); conditions: genetic perturbation: none (patient-derived cell culture)
Outline: as §1

[5] = test system: FIMM-PDC4 (patient-derived ovarian cancer cells); conditions: genetic perturbation: none (patient-derived cell culture)
Outline: as §1

[6] = test system: Kuramochi
Outline: as §1

[7] = test system: FIMM-PDC6 (patient-derived ovarian cancer cells); conditions: genetic perturbation: none (patient-derived cell culture)
Outline: as §1

[8] = test system: FIMM-PDC5 (patient-derived ovarian cancer cells); conditions: genetic perturbation: none (patient-derived cell culture)
Outline: as §1

[9] = test system: JHOS2
Outline: as §1

[10] = test system: FIMM-PDC2 (patient-derived ovarian cancer cells); conditions: genetic perturbation: none (patient-derived cell culture)
Outline: as §1

[11] = genetic perturbation: DOX-induced PTK7 shRNA knockdown
[12] = genetic perturbation: DOX-induced control shRNA

Row | SMILES | drug sensitivity score [1, 11] | drug sensitivity score [1, 12] | drug sensitivity score [2] | drug sensitivity score [3] | drug sensitivity score [4] | drug sensitivity score [5] | drug sensitivity score [6, 11] | drug sensitivity score [6, 12] | drug sensitivity score [7] | drug sensitivity score [8] | drug sensitivity score [9, 11] | drug sensitivity score [9, 12] | drug sensitivity score [10]
1 | CC(C)[C@@H](CS(=O)(=O)C(C)C)N1C(=O)[C@@](C)(CC(=O)O)C[C@H](c2cccc(Cl)c2)[C@H]1c1ccc(Cl)cc1 [AMG-232] | < 0 | < 0 | < 0 | 15 | < 0 | 7.1 | < 0 | < 0 | 14.2 | 20.3 | < 0 | < 0 | < 0
2 | C[C@@H]1COCCN1c1cc(C2([S@](C)(=N)=O)CC2)nc(-c2cc[nH]c3nccc2-3)n1 [AZD6738] | 6.2 | 5.5 | 12.7 | 8.6 | 13 | 8.7 | 6.5 | 4.5 | 11 | 10.4 | 6 | 3.6 | 9.5
3 | O=C1CCc2c(Oc3ccc4c(c3)[C@@H]3[C@H](O4)[C@H]3c3nc4cc(C(F)(F)F)ccc4[nH]3)ccnc2N1 [BGB-283] | 2.4 | 4 | 1.05 | 5.8 | 4.1 | 7.7 | 3.6 | 1.7 | 7.3 | 10.4 | 1.8 | 6.4 | 3.4
4 | CN[C@@H](C)C(=O)N[C@H]1CN(C(=O)CC(C)C)CC[C@H]2CC[C@@H](C(=O)NC(c3ccccc3)c3ccccc3)N2C1=O [AT-406] | 4.3 | < 0 | 7.9 | 0.6 | 10.8 | 0.9 | 1.1 | 0.3 | 5.3 | 1.5 | 16.5 | 10.2 | 10.5
5 | Cc1sc2c(c1C)C(c1ccc(Cl)cc1)=N[C@@H](CC(=O)NCCCCNC(=O)COc1cccc3c1C(=O)N(C1CCC(=O)NC1=O)C3=O)c1nnc(C)n1-2 (some centres undefined) [dBET1] | 4.3 | 3.4 | 0.1 | 5.8 | 2.7 | 8.1 | 3.9 | 4.4 | 7.5 | 11 | 3.2 | 5.5 | 2.6
6 | C[C@H]1O[C@@H](O[C@H]2[C@@H](O)C[C@H](O[C@H]3[C@@H](O)C[C@H](O[C@H]4CC[C@@]5(C)[C@H](CC[C@@H]6[C@@H]5C[C@@H](O)[C@]5(C)[C@@H](C7=CC(=O)OC7)CC[C@]65O)C4)O[C@@H]3C)O[C@@H]2C)C[C@H](O)[C@@H]1O [Digoxin] | 8.6 | 8 | 9.4 | 12.5 | 12 | 14.6 | 8.45 | 7.4 | 16.6 | 11.9 | 17.2 | 13 | 
7 | S=c1[nH]cnc2nc[nH]c12 [Mercaptopurine] | 0.9 | 7.3 | 3.75 | < 0 | < 0 | < 0 | 6.45 | 6.8 | < 0 | 2 | 0.1 | < 0 | 
8 | Nc1cc(C(F)(F)F)c(-c2cc(N3CCOCC3)nc(N3CCOCC3)n2)cn1 [Buparlisib] | 7.2 | 6.6 | 5.4 | 10.8 | 7.1 | 9.7 | 7.25 | 4.6 | 7.8 | 12.2 | 6.4 | 4.6 | 
9 | O=C(NC1CCNCC1)c1n[nH]cc1NC(=O)c1c(Cl)cccc1Cl [AT7519] | 17.2 | 14.5 | 14.1 | 18.2 | 13.6 | 16.3 | 15 | 7.7 | 20.5 | 20.5 | 14 | 14 | 
10 | Cc1cc(OCc2nnc(SC3CCCC3)n2-c2cccnc2)ccc1-c1ccc(S(C)(=O)=O)cc1 [NMS-873] | 5.1 | 7.5 | 7.55 | 5 | 9.4 | 8.3 | 8.15 | 6.2 | 9.1 | 5.5 | 7.7 | 5.9 | 
11 | Cc1cnc(Nc2ccc(OCCN3CCCC3)cc2)nc1Nc1cccc(S(=O)(=O)NC(C)(C)C)c1 [Fedratinib] | 7.2 | 8.8 | 3.65 | 2.9 | 4.3 | 7 | 8.8 | 8.7 | 3 | 10.7 | 8.5 | 9.1 | 
12 | COc1cc(OC)c(/C=C/S(=O)(=O)Cc2ccc(OC)c(NCC(=O)O)c2)c(OC)c1 [Rigosertib] | 19.1 | 9.2 | 13.2 | 10.6 | 19 | 23.6 | 17.9 | 6.4 | 15.1 | 20 | 18.3 | 13 | 
13 | COc1cccc2c1C(=O)c1c(O)c3c(c(O)c1C2=O)C[C@@](O)(C(=O)CO)C[C@@H]3O[C@H]1C[C@H](N)[C@@H](O)[C@H](C)O1 [Epirubicin] | 5.8 | 5.2 | 4.2 | 7.4 | 6.6 | 7.9 | 4.45 | 3.9 | 3.5 | 5.6 | 7.1 | 6.1 | 
14 | CN(Cc1cnc2nc(N)nc(N)c2n1)c1ccc(C(=O)N[C@@H](CCC(=O)O)C(=O)O)cc1 [Methotrexate] | < 0 | 4.6 | 2.2 | < 0 | < 0 | < 0 | 0.45 | 1.5 | < 0 | < 0 | < 0 | < 0 | 
15 | Nc1cc(F)ccc1NC(=O)c1ccc(CNC(=O)/C=C/c2cccnc2)cc1 [Tucidinostat] | 6.5 | 2.1 | 5.9 | 7.4 | 7.7 | 3.5 | 6.65 | 1.5 | 6.3 | 7.3 | 2 | 2.1 | 
16 | O=C(Nc1cccc(NC(=O)c2cccc(O)c2O)c1)c1cccc(O)c1O [MST-312] | 9.6 | 6.9 | 2.9 | < 0 | 9 | 6.7 | 6.05 | 8.6 | 3.3 | 3.7 | 11.6 | 11.5 | 

Row | SMILES | drug sensitivity score [1, 11] | drug sensitivity score [1, 12] | drug sensitivity score [2] | drug sensitivity score [3] | drug sensitivity score [4] | drug sensitivity score [5] | drug sensitivity score [6, 11] | drug sensitivity score [6, 12] | drug sensitivity score [7] | drug sensitivity score [8] | drug sensitivity score [9, 11] | drug sensitivity score [9, 12] | drug sensitivity score [10]
17 | COc1cc(Nc2ncc(F)c(Nc3ccc4c(n3)NC(=O)C(C)(C)O4)n2)cc(OC)c1OC [Tamatinib] | 7 | 1.1 | < 0 | 8.6 | 3.8 | 6.4 | 2.9 | 1.1 | 1.6 | 12.9 | 4.2 | 0.1 | 
18 | O=C(/C=C\n1cnc(-c2cc(C(F)(F)F)cc(C(F)(F)F)c2)n1)NNc1cnccn1 [Selinexor] | 14.8 | 7.4 | 12.4 | 19.5 | 22.4 | 17.1 | 9.85 | 13.5 | 24.4 | 20.1 | 18.8 | 14.5 | 
19 | COc1cc2ncnc(Nc3ccc(F)c(Cl)c3)c2cc1OCCCN1CCOCC1 [Gefitinib] | 7.7 | 4.1 | 3.4 | 10.7 | 10.9 | 15.2 | 4.3 | 3.3 | 13 | 18.6 | 3.5 | 3.5 | 
20 | Cn1cc(C2=Nc3cc(NC(=O)C(N)C4CCCCC4)cc4c3C2=CNNC4=O)cn1 (centres undefined) | 9.2 | 5.1 | 12.8 | 6.8 | 16.4 | 6.2 | 7.35 | 3.5 | 6.4 | 10.7 | 4.7 | 4.9 | 
21 | CS(=O)(=O)N1CCN(Cc2cc3nc(-c4cccc5[nH]ncc45)nc(N4CCOCC4)c3s2)CC1 [Pictilisib] | 11.7 | 14.1 | 8.15 | 12.1 | 8.3 | 15.1 | 14 | 7.2 | 11.5 | 16.5 | 5.9 | 9 | 
22 | Cn1cc(CNCC2CCN(c3ncc(C(=O)NO)cn3)CC2)c2ccccc21 [Quisinostat] | 13.6 | 12 | 11 | 8.6 | 16.5 | 5.1 | 17.4 | 6.5 | 11.8 | 14.6 | 10.9 | 12.5 | 
23 | CO[C@@H](C)Cn1c(=O)n(C)c2cnc3ccc(-c4cncc(C(C)(C)O)c4)cc3c21 | 11.3 | 8 | 6.85 | 11.6 | 6.9 | 12 | 8.4 | 8.4 | 12.6 | 16.8 | 7.2 | 8.5 | 
24 | Cn1ncc(Cl)c1-c1cc(C(=O)N[C@H](CN)Cc2ccc(F)c(F)c2)oc1Cl [Uprosertib] | < 0 | 2.5 | 1.9 | 6.5 | < 0 | 5 | 1.55 | < 0 | 6.8 | 8.9 | 0.6 | 0.2 | 
25 | CCS(=O)(=O)c1cccc(-c2cc(C(=O)NC3CCN(C)CC3)c(C)c3[nH]c4ncc(C)cc4c23)c1 [TAK-901] | 8.3 | 5.7 | 4.85 | 3 | 4.3 | 7.9 | 7.3 | 6.4 | 7.3 | 6.5 | 3.2 | 5.3 | 
26 | CNC(=O)c1nn(C)c2c1C(C)(C)Cc1cnc(Nc3ccc(N4CCN(C)CC4)cc3)nc1-2 [Milciclib] | 8.1 | 9 | 12.7 | 7.9 | 9.9 | 8.2 | 10.3 | 8 | 9.1 | 10.9 | 6.3 | 12.4 | 
27 | C=CC(=O)N1CCC[C@@H](n2nc(-c3ccc(Oc4ccccc4)cc3)c3c(N)ncnc32)C1 [Ibrutinib] | 2.9 | 2.6 | 0.35 | 2.5 | 5.6 | 7.7 | 2.2 | 1.1 | 6.4 | 10.1 | 0.6 | < 0 | 
28 | O=c1[nH]c(=O)n([C@H]2C[C@H](O)[C@@H](CO)O2)cc1F [Floxuridine] | 4 | 6.6 | 6.7 | 3.5 | 3.7 | 0.1 | 8.25 | 14.1 | 2.3 | 3.5 | < 0 | 0.6 | 
29 | COc1cc2ncnc(Nc3ccc(F)c(Cl)c3)c2cc1NC(=O)/C=C/CN1CCCCC1 [Dacomitinib] | 4.8 | 2.4 | 3.2 | 14 | 13.1 | 18.2 | 2.45 | 1.6 | 18 | 23.4 | < 0 | 2 | 
30 | CNC(=O)c1cccc(-c2ccc3c(N4CCOC[C@@H]4C)nc(N4CCOC[C@@H]4C)nc3n2)c1 [Vistusertib] | 12.6 | 14.3 | 8.75 | 18.6 | 7.8 | 14.9 | 9.7 | 12.4 | 13 | 23.9 | 6.1 | 10.5 | 
31 | CC/C(=C(\c1ccc(O)cc1)c1ccc(OCCN(C)C)cc1)c1ccccc1 [4-hydroxytamoxifen] | 4.9 | 3.2 | 3.6 | 4.6 | 6 | 6 | 5.1 | 2.4 | 3 | 6 | 8.4 | 2.3 | 
32 | O=C(Nc1c[nH]nc1-c1nc2ccc(CN3CCOCC3)cc2[nH]1)NC1CC1 [AT9283] | 6.9 | 3.1 | 2.9 | < 0 | 4.4 | 8.2 | 5.7 | 3.2 | 3.1 | 6.1 | 7.3 | 4.8 | 

Reference: the supplement of paper PMC9386025
